ChEMBL document CHEMBL1201862, “PubChem BioAssay data set” (2004)
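Tested at 5 concentrations; 48 h exposure; 96-well plates; endpoints linearly interpolated, else capped at highest concentration. GI50 = concentration required for 50% inhibition of growth.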 Calls of active or inactive are those of the source. Cut-off read from the data, not from the text of the source: active = GI50 up to about 1.1 µM and inactive = higher.

Legend:
Assay in all cases: NCI-60 cell line screen, 48 h
[1] = system: DLD-1
[2] = system: DMS-114
[3] = system: DMS-273
[4] = system: M19-MEL
[5] = system: RXF 631
[6] = system: SNB-78
[7] = system: XF498
[8] = system: HOP-18
[9] = system: LXFL 529

`O=C(NCCCC/N=c1/cccccc1NCCCCNC(=O)OCc1ccccc1)OCc1ccccc1` was tested, and the GI50 [1] was 12.6 µM (inactive), the GI50 [2] was 8.11 µM (inactive) and the GI50 [3] was 17.5 µM (inactive). The GI50 [4] was 20.2 µM (inactive), the GI50 [5] was 13.3 µM (inactive) and the GI50 [6] was 24.6 µM (inactive). For the same compound, the GI50 [7] was 4.29 µM (inactive).

For `COc1ccc(C(Cl)=C(c2ccc(OCCN(C)C)cc2)c2ccc(OCCN(C)C)cc2)cc1`, the GI50 [1] was 2.51 µM (inactive), the GI50 [2] was 1.6 µM (inactive) and the GI50 [3] was 1.86 µM (inactive). The GI50 [5] was 0.322 µM (active), the GI50 [6] was 1.71 µM (inactive) and the GI50 [7] was 1.46 µM (inactive).

In the case of `OCC1OC2c3ccccc3COC2C1OCc1ccccc1` (stereo not drawn), the GI50 [1] is reported as > 100 µM (inactive), the GI50 [2] is reported as 59.4 µM (inactive) and the GI50 [8] is reported as > 100 µM (inactive). For the same compound, the GI50 [9] was 87.7 µM (inactive), the GI50 [4] was > 100 µM (inactive) and the GI50 [5] was > 100 µM (inactive). The GI50 [6] was > 100 µM (inactive) and the GI50 [7] was 49.2 µM (inactive).

In the case of `Cn1c(=O)c2c(nc3n2CCC(=O)N3)n(C)c1=O`, the GI50 [1] is reported as > 100 µM (inactive), the GI50 [2] is reported as > 100 µM (inactive) and the GI50 [3] is reported as > 100 µM (inactive). The GI50 [9] was > 100 µM (inactive), the GI50 [4] was > 100 µM (inactive) and the GI50 [5] was > 100 µM (inactive). For the same compound, the GI50 [6] was > 100 µM (inactive).

For `CC(N)Cc1ccc(Cl)cc1` (stereo not drawn), the GI50 [1] was > 100 µM (inactive), the GI50 [3] was > 100 µM (inactive) and the GI50 [8] was > 100 µM (inactive). For the same compound, the GI50 [9] was > 100 µM (inactive) and the GI50 [7] was > 100 µM (inactive).

In the case of `COc1cc(C[P+](c2ccccc2)(c2ccccc2)c2ccccc2)cc(OC)c1OC`, the GI50 [1] is reported as > 100 µM (inactive), the GI50 [2] is reported as > 100 µM (inactive) and the GI50 [3] is reported as > 100 µM (inactive). The GI50 [9] was > 100 µM (inactive), the GI50 [4] was > 100 µM (inactive) and the GI50 [6] was > 100 µM (inactive). For the same compound, the GI50 [7] was > 100 µM (inactive).

For `N#C/C(=C\c1cc(OCc2ccccc2)c(OCc2ccccc2)cn1)C(N)=O`, the GI50 [1] was > 100 µM (inactive), the GI50 [2] was 81.3 µM (inactive) and the GI50 [9] was > 100 µM (inactive). For the same compound, the GI50 [4] was > 100 µM (inactive), the GI50 [5] was > 100 µM (inactive) and the GI50 [6] was > 100 µM (inactive). For the same compound, the GI50 [7] was > 100 µM (inactive).

With `COc1cccc(C(=O)N2CCc3ccccc32)c1OC` the GI50 [2] was 43.8 µM (inactive), the GI50 [3] was 41 µM (inactive) and the GI50 [8] was 34.1 µM (inactive). For the same compound, the GI50 [9] was 74 µM (inactive), the GI50 [4] was > 100 µM (inactive) and the GI50 [5] was 58.5 µM (inactive). The GI50 [6] was > 100 µM (inactive) and the GI50 [7] was 40.3 µM (inactive).

For `C/C1=C/C2OC(=O)C3(C)C2C(CC2(C)OC1=CC2=O)OC3(O)C(C)C` (stereo not drawn), the GI50 [1] was 32.7 µM (inactive), the GI50 [2] was 14.3 µM (inactive) and the GI50 [3] was 33 µM (inactive). For the same compound, the GI50 [8] was 37.8 µM (inactive), the GI50 [9] was 27.4 µM (inactive) and the GI50 [4] was 34.4 µM (inactive). The GI50 [5] was 33.1 µM (inactive), the GI50 [6] was 35.2 µM (inactive) and the GI50 [7] was 23.7 µM (inactive).

`OCC(O)C(O)C(O)c1nn(-c2ccc(F)cc2)c2nc3cc(Cl)c(Cl)cc3nc12` (stereo not drawn) was tested, and the GI50 [1] was 32.7 µM (inactive), the GI50 [2] was 21.3 µM (inactive) and the GI50 [3] was 15.9 µM (inactive). For the same compound, the GI50 [8] was 16.9 µM (inactive), the GI50 [9] was 28.1 µM (inactive) and the GI50 [4] was 22 µM (inactive). The GI50 [6] was 13.8 µM (inactive) and the GI50 [7] was 11.4 µM (inactive).

With `O=C1C=CC2(CCCCCCC2=O)CC1` (stereo not drawn) the GI50 [1] was > 100 µM (inactive), the GI50 [3] was > 100 µM (inactive) and the GI50 [8] was > 100 µM (inactive). For the same compound, the GI50 [9] was > 100 µM (inactive), the GI50 [4] was > 100 µM (inactive) and the GI50 [6] was > 100 µM (inactive).

In the case of `Cc1ccc(C)c(NC(=O)CC/C(=N\NC(=O)c2c(O)ccc3ccccc23)C(C)C(=O)c2ccc(O)cc2)c1` (stereo not drawn), the GI50 [1] is reported as 52.5 µM (inactive), the GI50 [3] is reported as 26.9 µM (inactive) and the GI50 [8] is reported as 14.3 µM (inactive). The GI50 [9] was 30.5 µM (inactive), the GI50 [6] was 36.2 µM (inactive) and the GI50 [7] was 44.3 µM (inactive).

With `CCOC(=O)C(CCC(N)=O)(CCC(=O)OC)C(=O)OCC` the GI50 [1] was > 100 µM (inactive), the GI50 [2] was > 100 µM (inactive) and the GI50 [3] was > 100 µM (inactive). The GI50 [8] was > 100 µM (inactive), the GI50 [9] was > 100 µM (inactive) and the GI50 [4] was > 100 µM (inactive). For the same compound, the GI50 [6] was > 100 µM (inactive) and the GI50 [7] was > 100 µM (inactive).

In the case of `O=C1C2CC=CCC2C(=O)C12CCc1ccccc12` (stereo not drawn), the GI50 [1] is reported as > 100 µM (inactive), the GI50 [3] is reported as > 100 µM (inactive) and the GI50 [8] is reported as 8.15 µM (inactive). For the same compound, the GI50 [9] was > 100 µM (inactive), the GI50 [4] was > 100 µM (inactive) and the GI50 [6] was > 100 µM (inactive). For the same compound, the GI50 [7] was > 100 µM (inactive).

For `CCCCCCCCC(=O)NCCCNCCCNC(=O)CCCCCCCC`, the GI50 [1] was 2.93 µM (inactive), the GI50 [2] was 3.78 µM (inactive) and the GI50 [3] was 2.56 µM (inactive). The GI50 [8] was 11.9 µM (inactive), the GI50 [9] was 3.35 µM (inactive) and the GI50 [4] was 3.93 µM (inactive). For the same compound, the GI50 [6] was 10.9 µM (inactive) and the GI50 [7] was 3.18 µM (inactive).

In the case of `Brc1cc(C2OCCCO2)ccc1OCc1ccccc1`, the GI50 [1] is reported as 37 µM (inactive), the GI50 [2] is reported as 44.3 µM (inactive) and the GI50 [3] is reported as 47.8 µM (inactive). For the same compound, the GI50 [9] was 45.9 µM (inactive), the GI50 [4] was 66.5 µM (inactive) and the GI50 [6] was 34.8 µM (inactive). The GI50 [7] was 59.3 µM (inactive).

`O=C(Cc1nc2ccccc2s1)NC12CC3CC(CC(C3)C1)C2` was tested, and the GI50 [1] was > 100 µM (inactive), the GI50 [3] was > 100 µM (inactive) and the GI50 [9] was > 100 µM (inactive). The GI50 [4] was > 100 µM (inactive), the GI50 [5] was > 100 µM (inactive) and the GI50 [6] was > 100 µM (inactive).

`Cc1nc2nnnn2c2c1C(=O)Nc1ccccc1N2` was tested, and the GI50 [1] was > 100 µM (inactive), the GI50 [2] was > 100 µM (inactive) and the GI50 [3] was > 100 µM (inactive). For the same compound, the GI50 [8] was > 100 µM (inactive), the GI50 [9] was > 100 µM (inactive) and the GI50 [4] was > 100 µM (inactive). The GI50 [6] was > 100 µM (inactive) and the GI50 [7] was > 100 µM (inactive).

For `COc1ccc(Nc2nc3ccc(C(F)(F)F)cc3nc2-c2ccccc2)cc1OC`, the GI50 [1] was 30.5 µM (inactive), the GI50 [2] was 38.7 µM (inactive) and the GI50 [3] was 32.4 µM (inactive). For the same compound, the GI50 [9] was 43.2 µM (inactive), the GI50 [5] was 39.6 µM (inactive) and the GI50 [7] was 49.1 µM (inactive).

`CN(C)CCNC(=O)c1cccc2[nH]c(-c3cccnc3)nc12` was tested, and the GI50 [1] was 22.2 µM (inactive), the GI50 [3] was 20.7 µM (inactive) and the GI50 [8] was 25.2 µM (inactive). The GI50 [4] was 20.2 µM (inactive) and the GI50 [6] was 35 µM (inactive).

With `Cc1ccc(/N=C2\N=C(N3CC(C)OC(C)C3)c3ccccc32)cc1` (stereo not drawn) the GI50 [1] was 41.3 µM (inactive), the GI50 [3] was 28.1 µM (inactive) and the GI50 [9] was 18.9 µM (inactive). For the same compound, the GI50 [4] was 36.1 µM (inactive), the GI50 [5] was 34.9 µM (inactive) and the GI50 [6] was 31.1 µM (inactive). For the same compound, the GI50 [7] was 24.3 µM (inactive).

`CCOC(=O)NC(=O)c1cn(CCN2CCN(C(=O)CNC(=O)CNC(=O)Cn3cc(C(=O)NC(=O)OCC)c(=O)[nH]c3=O)CC2)c(=O)[nH]c1=O` was tested, and the GI50 [1] was > 100 µM (inactive), the GI50 [2] was > 100 µM (inactive) and the GI50 [3] was > 100 µM (inactive). The GI50 [8] was > 100 µM (inactive), the GI50 [9] was > 100 µM (inactive) and the GI50 [4] was > 100 µM (inactive). The GI50 [6] was > 100 µM (inactive) and the GI50 [7] was > 100 µM (inactive).

`NC1(CCCCCCCCCCC(=O)O)CNCCNCCNCCNC1` was tested, and the GI50 [1] was 40.7 µM (inactive), the GI50 [2] was 28.8 µM (inactive) and the GI50 [4] was 39.6 µM (inactive).

In the case of `COc1ccc(CNc2cnc3ccc(N)cc3n2)cc1`, the GI50 [1] is reported as > 100 µM (inactive), the GI50 [2] is reported as 2.09 µM (inactive) and the GI50 [3] is reported as 0.0531 µM (active). For the same compound, the GI50 [8] was > 100 µM (inactive), the GI50 [4] was 0.243 µM (active) and the GI50 [6] was 82.8 µM (inactive). The GI50 [7] was > 100 µM (inactive).

With `O=C(O)/C=C/C(=O)N1C/C(=C\c2ccccc2)C(=O)/C(=C/c2ccccc2)C1` the GI50 [1] was 3.94 µM (inactive), the GI50 [2] was 2.99 µM (inactive) and the GI50 [3] was 8.53 µM (inactive). The GI50 [8] was 11.9 µM (inactive), the GI50 [9] was 1.8 µM (inactive) and the GI50 [4] was 3.21 µM (inactive). For the same compound, the GI50 [6] was 5.9 µM (inactive) and the GI50 [7] was 7.18 µM (inactive).

With `COc1ccc2c(c1)C(=O)N1CCOC1C2C(=O)O` (stereo not drawn) the GI50 [1] was > 100 µM (inactive), the GI50 [2] was > 100 µM (inactive) and the GI50 [3] was 0.693 µM (active). The GI50 [8] was > 100 µM (inactive), the GI50 [9] was > 100 µM (inactive) and the GI50 [4] was > 100 µM (inactive). The GI50 [5] was > 100 µM (inactive), the GI50 [6] was > 100 µM (inactive) and the GI50 [7] was > 100 µM (inactive).

For `CC(O)CNC(=O)C(C)Oc1ccc(OCC2CCCCC2)cc1` (stereo not drawn), the GI50 [2] was 46.3 µM (inactive), the GI50 [3] was > 100 µM (inactive) and the GI50 [8] was > 100 µM (inactive). For the same compound, the GI50 [9] was > 100 µM (inactive), the GI50 [4] was > 100 µM (inactive) and the GI50 [6] was > 100 µM (inactive). The GI50 [7] was > 100 µM (inactive).

With `CN(C)c1ccc(/C=C(/C(=O)O)c2csc(-c3nc(/C(=C\c4ccc(N(C)C)cc4)C(=O)O)cs3)n2)cc1` the GI50 [1] was > 100 µM (inactive), the GI50 [2] was 29.9 µM (inactive) and the GI50 [9] was 96.4 µM (inactive). The GI50 [4] was > 100 µM (inactive) and the GI50 [6] was > 100 µM (inactive).
